Tests used:
Settings in all cases: 48 h
NOMO1 [1] = experiment: AUC of viability dose-response curve (% viability x log10 dose units); higher = less sensitive
Summary of the method: (§1)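 Library compounds in DMSO were applied for 48 h at 37°C at 11 threefold doses (47 μM to 0.79 nM) to medium-adapted leukemia cells in 1536-well plates holding 500 or 1000 cells/well. Luminescence from CellTiter-Glo One was normalised plate by plate against DMSO and cell-free wells. Area under the curve came from trapezoidal integration of a log-logistic fit, after scaling curves that rose above full viability and discarding those that failed quality control. The fit had four parameters and used log10 doses.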

P12-Ichikawa [2] = experiment: as above
Summary of the method: as §1

SEM cells [3] = experiment: as above
Summary of the method: as §1

SEM cells [4] = experiment: cell viability relative to DMSO control; higher = less cytotoxic
Summary of the method: (§2)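 Three leukemia lines were tested: NOMO1 and SEM at 500 cells/well and P12-Ichikawa at 1000 cells/well. Each was adapted for at least four passages in each medium and seeded in 5 μl in 1536-well plates, and library compounds in DMSO were pin-dosed from 47 μM to 0.79 nM in 11 threefold steps. After 48 h at 37°C, CellTiter-Glo One luminescence was read. Viability is a percentage relative to DMSO wells on each plate, with cell-free wells as background.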

NOMO1 [5] = experiment: as above
Summary of the method: as §2

P12-Ichikawa [6] = experiment: as above
Summary of the method: as §2

CC(C)c1cccc(C(C)C)c1O
AUC of viability dose-response curve
Settings | NOMO1 [1] | P12-Ichikawa [2] | SEM cells [3]
HPLM + 10% dialyzed FBS | 463 | 453 | 453
RPMI 5 mM glucose + 10% FBS | 453 | 463 | 459
RPMI 5 mM glucose + 10% dialyzed FBS | 455 | 447 | 469

FC1=CC2=C3[N](CCN(CC3=C1)C(=O)N4CCCCC4)C=C2C/5=C(C(=O)NC5=O)\C6=CN=C7C=CC=C[N]67
SEM cells [4], HPLM + 10% dialyzed FBS
Settings | cell viability [%]
0.000781 µM | 104
0.00234 µM | 109
0.00702 µM | 118
0.0211 µM | 57
0.0632 µM | 11.5
0.19 µM | 9.31
0.569 µM | 8.55
1.71 µM | 10.7
5.12 µM | 8.69
15.4 µM | 5.56
46.1 µM | 6.04

AUC of viability dose-response curve
Settings | NOMO1 [1] | P12-Ichikawa [2] | SEM cells [3]
HPLM + 10% dialyzed FBS | 461 | 329 | 168
RPMI 5 mM glucose + 10% FBS | 469 | 298 | 159
RPMI 5 mM glucose + 10% dialyzed FBS | 463 | 367 | 159

C/C1=C/C(=C(/CNC(=O)C2=CC(=CC3=C2C=N[N]3C4CCCC4)C5=CC=C(CN6CCOCC6)C=C5)C(=O)N1)C
cell viability [%]
Settings | NOMO1 [5] | P12-Ichikawa [6] | SEM cells [4]
HPLM + 10% dialyzed FBS, 0.000781 µM | – | 113 | 113
HPLM + 10% dialyzed FBS, 0.00234 µM | – | 118 | 122
HPLM + 10% dialyzed FBS, 0.00702 µM | – | 118 | 126
HPLM + 10% dialyzed FBS, 0.0211 µM | – | 117 | 23.4
HPLM + 10% dialyzed FBS, 0.0632 µM | – | 124 | 117
HPLM + 10% dialyzed FBS, 0.19 µM | – | 120 | 127
HPLM + 10% dialyzed FBS, 0.569 µM | – | 114 | 115
HPLM + 10% dialyzed FBS, 1.71 µM | – | 112 | 115
HPLM + 10% dialyzed FBS, 5.12 µM | – | 114 | 113
HPLM + 10% dialyzed FBS, 15.4 µM | – | 106 | 106
HPLM + 10% dialyzed FBS, 46.1 µM | – | 38.6 | 7.3
RPMI 5 mM glucose + 10% FBS, 0.000781 µM | 110 | 128 | 97.8
RPMI 5 mM glucose + 10% FBS, 0.00234 µM | 125 | 124 | 103
RPMI 5 mM glucose + 10% FBS, 0.00702 µM | 118 | 120 | 116
RPMI 5 mM glucose + 10% FBS, 0.0211 µM | 120 | 117 | 18.1
RPMI 5 mM glucose + 10% FBS, 0.0632 µM | 132 | 126 | 106
RPMI 5 mM glucose + 10% FBS, 0.19 µM | 127 | 123 | 96.5
RPMI 5 mM glucose + 10% FBS, 0.569 µM | 127 | 126 | 83.4
RPMI 5 mM glucose + 10% FBS, 1.71 µM | 124 | 123 | 93.2
RPMI 5 mM glucose + 10% FBS, 5.12 µM | 104 | 115 | 92
RPMI 5 mM glucose + 10% FBS, 15.4 µM | 117 | 122 | 67.5
RPMI 5 mM glucose + 10% FBS, 46.1 µM | 22 | 45.8 | 4.27
RPMI 5 mM glucose + 10% dialyzed FBS, 0.000781 µM | 124 | – | 116
RPMI 5 mM glucose + 10% dialyzed FBS, 0.00234 µM | 118 | – | 124
RPMI 5 mM glucose + 10% dialyzed FBS, 0.00702 µM | 128 | – | 132
RPMI 5 mM glucose + 10% dialyzed FBS, 0.0211 µM | 123 | – | 22.7
RPMI 5 mM glucose + 10% dialyzed FBS, 0.0632 µM | 125 | – | 130
RPMI 5 mM glucose + 10% dialyzed FBS, 0.19 µM | 111 | – | 122
RPMI 5 mM glucose + 10% dialyzed FBS, 0.569 µM | 131 | – | 118
RPMI 5 mM glucose + 10% dialyzed FBS, 1.71 µM | 125 | – | 129
RPMI 5 mM glucose + 10% dialyzed FBS, 5.12 µM | 125 | – | 128
RPMI 5 mM glucose + 10% dialyzed FBS, 15.4 µM | 112 | – | 126
RPMI 5 mM glucose + 10% dialyzed FBS, 46.1 µM | 13.5 | – | 6.82

AUC of viability dose-response curve
Settings | HPLM + 10% dialyzed FBS | RPMI 5 mM glucose + 10% FBS | RPMI 5 mM glucose + 10% dialyzed FBS
NOMO1 [1] | 448 | 456 | 451
P12-Ichikawa [2] | 456 | 462 | 452

CN1CCN2c3ccccc3Cc3ccccc3C2C1 (stereo unspecified)
AUC of viability dose-response curve
Settings | NOMO1 [1] | P12-Ichikawa [2] | SEM cells [3]
HPLM + 10% dialyzed FBS | 433 | 453 | 467
RPMI 5 mM glucose + 10% FBS | 474 | 441 | 463
RPMI 5 mM glucose + 10% dialyzed FBS | 472 | 466 | 453

Cc1oncc1C(=O)Nc1ccc(C(F)(F)F)cc1
AUC of viability dose-response curve
Settings | NOMO1 [1] | P12-Ichikawa [2] | SEM cells [3]
HPLM + 10% dialyzed FBS | 458 | 461 | 471
RPMI 5 mM glucose + 10% FBS | 461 | 454 | 468
RPMI 5 mM glucose + 10% dialyzed FBS | 422 | 459 | 465

COC1=CC(=CC(=C1)C2=CC=C3N=CC\4=C(N(C(=O)\C=C4)C5=CC(=C(C=C5)N6CCNCC6)C(F)(F)F)C3=C2)OC
AUC of viability dose-response curve
Settings | NOMO1 [1] | P12-Ichikawa [2] | SEM cells [3]
HPLM + 10% dialyzed FBS | 387 | 440 | 406
RPMI 5 mM glucose + 10% FBS | 456 | 407 | 414
RPMI 5 mM glucose + 10% dialyzed FBS | 436 | 412 | 413

Clc1ccc(C(Cn2ccnc2)OCc2c(Cl)cccc2Cl)c(Cl)c1 (stereo unspecified)
SEM cells [4], HPLM + 10% dialyzed FBS
Settings | cell viability [%]
0.000781 µM | 109
0.00234 µM | 105
0.00702 µM | 121
0.0211 µM | 107
0.0632 µM | 117
0.19 µM | 125
0.569 µM | 130
1.71 µM | 117
5.12 µM | 121
15.4 µM | 114
46.1 µM | 117

AUC of viability dose-response curve
Settings | NOMO1 [1] | P12-Ichikawa [2] | SEM cells [3]
HPLM + 10% dialyzed FBS | 466 | 474 | 462
RPMI 5 mM glucose + 10% FBS | 468 | 466 | 471
RPMI 5 mM glucose + 10% dialyzed FBS | 468 | 468 | 467

CCOc1cc(N2CCC(O)CC2)ccc1Nc1ncc2c(n1)N(C)c1ccccc1C(=O)N2C
SEM cells [4], HPLM + 10% dialyzed FBS
Settings | cell viability [%]
0.000781 µM | 106
0.00234 µM | 117
0.00702 µM | 133
0.0211 µM | 126
0.0632 µM | 130
0.19 µM | 133
0.569 µM | 139
1.71 µM | 146
5.12 µM | 119
15.4 µM | 94.9
46.1 µM | 7.22

AUC of viability dose-response curve
Settings | NOMO1 [1] | P12-Ichikawa [2] | SEM cells [3]
HPLM + 10% dialyzed FBS | 321 | 350 | 441
RPMI 5 mM glucose + 10% FBS | 301 | 352 | 421
RPMI 5 mM glucose + 10% dialyzed FBS | 318 | 370 | 428

C/C(O)=C(\C#N)C(=O)Nc1ccc(C(F)(F)F)cc1
AUC of viability dose-response curve
Settings | NOMO1 [1] | P12-Ichikawa [2] | SEM cells [3]
HPLM + 10% dialyzed FBS | 457 | 454 | 437
RPMI 5 mM glucose + 10% FBS | 470 | 455 | 430
RPMI 5 mM glucose + 10% dialyzed FBS | 436 | 432 | 431

O=C(O)/C=C/c1ccc(Cn2ccnc2)cc1
AUC of viability dose-response curve
Settings | NOMO1 [1] | P12-Ichikawa [2] | SEM cells [3]
HPLM + 10% dialyzed FBS | 469 | 438 | 466
RPMI 5 mM glucose + 10% FBS | 438 | 436 | 471
RPMI 5 mM glucose + 10% dialyzed FBS | 460 | 464 | 473

CC1(C)[C@H](C(=O)O)N2C(=O)C[C@H]2[S+]1(=O)[O-]
AUC of viability dose-response curve
Settings | NOMO1 [1] | P12-Ichikawa [2] | SEM cells [3]
HPLM + 10% dialyzed FBS | 396 | 468 | 472
RPMI 5 mM glucose + 10% FBS | 411 | 470 | 468
RPMI 5 mM glucose + 10% dialyzed FBS | 420 | 469 | 472
